Source: patent publication EP0726261A1, “Herbidical 1,2,4 thiadiazoles” (American Cyanamid Company, priority 1995, dated 1996)

Key:
Format in all cases: in vivo
Glycine max [1] = assay: Herbicidal activity, postemergence test (Example 66); conditions: post; 1000 g/ha; assessed visually twenty days after spraying
Method in brief: (§1)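 Damage is graded by eye on a linear 0-9 scale twenty days after treatment, with untreated sown soil or untreated seedlings as reference. The spray, 1000 g/ha in 900 L/ha from an acetone/0.4% Triton X-155 stock diluted in water, goes onto prepared horticultural loam or young plants.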

Echinochloa crus-galli [2] = assay: Herbicidal activity, preemergence test (Example 66); parameters: key: A rating of 0 indicates growth as untreated control; a rating of 9 indicates death; conditions: pre; 1000 g/ha; assessed visually twenty days after spraying
Method in brief: as §1

Sinapsis alba [3] = assay: as above; parameters: key: A rating of 0 indicates growth as untreated control; a rating of 9 indicates death; conditions: pre; 1000 g/ha; assessed visually twenty days after spraying
Method in brief: as §1

Linum usitatissimum [4] = assay: as above; parameters: key: A rating of 0 indicates growth as untreated control; a rating of 9 indicates death; conditions: pre; 1000 g/ha; assessed visually twenty days after spraying
Method in brief: as §1

Glycine max [5] = assay: as above; parameters: key: A rating of 0 indicates growth as untreated control; a rating of 9 indicates death; conditions: pre; 1000 g/ha; assessed visually twenty days after spraying
Method in brief: as §1

Beta vulgaris [6] = assay: as above; parameters: key: A rating of 0 indicates growth as untreated control; a rating of 9 indicates death; conditions: pre; 1000 g/ha; assessed visually twenty days after spraying
Method in brief: as §1

Oryza sativa [7] = assay: as above; parameters: key: A rating of 0 indicates growth as untreated control; a rating of 9 indicates death; conditions: pre; 1000 g/ha; assessed visually twenty days after spraying
Method in brief: as §1

Zea mays [8] = assay: as above; parameters: key: A rating of 0 indicates growth as untreated control; a rating of 9 indicates death; conditions: pre; 1000 g/ha; assessed visually twenty days after spraying
Method in brief: as §1

Avena fatua [9] = assay: as above; parameters: key: A rating of 0 indicates growth as untreated control; a rating of 9 indicates death; conditions: pre; 1000 g/ha; assessed visually twenty days after spraying
Method in brief: as §1

Echinochloa crus-galli [10] = assay: Herbicidal activity, postemergence test (Example 66); parameters: key: A rating of 0 indicates growth as untreated control; a rating of 9 indicates death; conditions: post; 1000 g/ha; assessed visually twenty days after spraying
Method in brief: as §1

Sinapsis alba [11] = assay: as above; parameters: key: A rating of 0 indicates growth as untreated control; a rating of 9 indicates death; conditions: post; 1000 g/ha; assessed visually twenty days after spraying
Method in brief: as §1

Linum usitatissimum [12] = assay: as above; parameters: key: A rating of 0 indicates growth as untreated control; a rating of 9 indicates death; conditions: post; 1000 g/ha; assessed visually twenty days after spraying
Method in brief: as §1

Beta vulgaris [13] = assay: as above; parameters: key: A rating of 0 indicates growth as untreated control; a rating of 9 indicates death; conditions: post; 1000 g/ha; assessed visually twenty days after spraying
Method in brief: as §1

Oryza sativa [14] = assay: as above; parameters: key: A rating of 0 indicates growth as untreated control; a rating of 9 indicates death; conditions: post; 1000 g/ha; assessed visually twenty days after spraying
Method in brief: as §1

Zea mays [15] = assay: as above; parameters: key: A rating of 0 indicates growth as untreated control; a rating of 9 indicates death; conditions: post; 1000 g/ha; assessed visually twenty days after spraying
Method in brief: as §1

Avena fatua [16] = assay: as above; parameters: key: A rating of 0 indicates growth as untreated control; a rating of 9 indicates death; conditions: post; 1000 g/ha; assessed visually twenty days after spraying
Method in brief: as §1

Compound | herbicidal effects on a 0-9 scale, GLXMA (Glycine max [1]) | herbicidal effects on a 0-9 scale, ECHCG (Echinochloa crus-galli [2]) | herbicidal effects on a 0-9 scale, SINAL (Sinapsis alba [3]) | herbicidal effects on a 0-9 scale, LIUUT (Linum usitatissimum [4]) | herbicidal effects on a 0-9 scale, GLXMA (Glycine max [5]) | herbicidal effects on a 0-9 scale, BEAVA (Beta vulgaris [6]) | herbicidal effects on a 0-9 scale, ORYSA (Oryza sativa [7]) | herbicidal effects on a 0-9 scale, ZEAMX (Zea mays [8]) | herbicidal effects on a 0-9 scale, AVEFA (Avena fatua [9]) | herbicidal effects on a 0-9 scale, ECHCG (Echinochloa crus-galli [10]) | herbicidal effects on a 0-9 scale, SINAL (Sinapsis alba [11]) | herbicidal effects on a 0-9 scale, LIUUT (Linum usitatissimum [12]) | herbicidal effects on a 0-9 scale, BEAVA (Beta vulgaris [13]) | herbicidal effects on a 0-9 scale, ORYSA (Oryza sativa [14]) | herbicidal effects on a 0-9 scale, ZEAMX (Zea mays [15]) | herbicidal effects on a 0-9 scale, AVEFA (Avena fatua [16])
CCNC(=O)c1nc(-c2ccc(F)cc2)ns1 [Example 17] | 5 | 0 | 0 | 0 | 0 | 0 | 0 | 0 | 0 | 2 | 8 | 2 | 7 | 0 | 2 | 4
CC(C)(C)c1nsc(C(=O)NCc2cccs2)n1 [Example 7] | 3 | 0 | 0 | 0 | 0 | 0 | 0 | 0 | 0 | 0 | 8 | 4 | 8 | 0 | 0 | 0
C[C@H](NC(=O)c1nc(-c2ccccc2)ns1)c1ccccc1 [Example 5] | 4 | 0 | 0 | 0 | 0 | 4 | 0 | 0 | 0 | 8 | 9 | 7 | 5 | 0 | 2 | 6
C[C@H](NC(=O)c1nc(-c2ccc(F)cc2)ns1)c1ccccc1 [Example 16, (S)-3-(4-Fluorophenyl)-[1,2,4]thiadiazole-5-carboxylic acid, 1-(phenylethyl)amide] | 6 | 0 | 0 | 0 | 0 | 0 | 0 | 0 | 0 | 8 | 9 | 7 | 9 | 2 | 0 | 7
